# Reference: ChEMBL document CHEMBL1201862, “PubChem BioAssay data set” (2004)
#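 These data come from cells grown in 96-well plates and exposed to compound for 48 hours at five concentrations. GI50 is the concentration that inhibits growth by half.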 Activity calls are given as the source filed them. Cut-off read from the data, not from the text of the source: active = GI50 up to about 1.1 µM and inactive = higher.
# How the values were obtained:
# Experiment in all cases: DTP human tumour cell line panel, 48 h
# [1] = test system: A498
# [2] = test system: TK-10
# [3] = test system: OVCAR-4
# [4] = test system: MDA-MB-435
# [5] = test system: HOP-92
# [6] = test system: HCT-15
# [7] = test system: NCI/ADR-RES
# [8] = test system: RPMI-8226
# [9] = test system: SNB-19
# [10] = test system: SNB-75
# [11] = test system: OVCAR-8
# [12] = test system: SK-MEL-28
# [13] = test system: HCC 2998
# [14] = test system: MDA-MB-231
# [15] = test system: U-251
# [16] = test system: NCI-H522
# [17] = test system: CAKI-1
# [18] = test system: CCRF-CEM
# [19] = test system: SF-268
# [20] = test system: NCI-H23
# [21] = test system: OVCAR-3
# [22] = test system: ACHN
# [23] = test system: HL-60
# [24] = test system: RXF 393
# [25] = test system: UACC-62
# [26] = test system: Hs-578T
# [27] = test system: LOX IMVI
# [28] = test system: MCF7
# [29] = test system: UACC-257
# [30] = test system: Malme-3M
# [31] = test system: OVCAR-5
# [32] = test system: HOP-62
# [33] = test system: SR
# [34] = test system: HT-29
# [35] = test system: A549
# [36] = test system: 786-0
# [37] = test system: SW-620
# [38] = test system: SK-MEL-5
# [39] = test system: K562
# [40] = test system: SK-OV-3
# [41] = test system: PC-3
# [42] = test system: COLO 205
# [43] = test system: MDA-N
# [44] = test system: EKVX
# [45] = test system: NCI-H460
# [46] = test system: T47D
# [47] = test system: M14
# [48] = test system: SF-539
# [49] = test system: KM12
# [50] = test system: DU-145
# [51] = test system: SF-295
# [52] = test system: UO-31
# [53] = test system: NCI-H226
# [54] = test system: SK-MEL-2
# [55] = test system: IGROV-1
# [56] = test system: MOLT-4
structure (smiles),measurement,setting,value
CC(=O)[C@H]1[C@@H](OCc2ccccc2)O[N+]([O-])=C(C)[C@@H]1c1ccccc1,GI50,[1],> 100 µM (inactive)
same,GI50,[2],56.1 µM (inactive)
same,GI50,[3],47.1 µM (inactive)
same,GI50,[4],45 µM (inactive)
same,GI50,[5],24.8 µM (inactive)
same,GI50,[6],27.7 µM
same,GI50,[7],39.1 µM (inactive)
same,GI50,[8],14.7 µM (inactive)
same,GI50,[9],97.3 µM (inactive)
same,GI50,[10],> 100 µM (inactive)
same,GI50,[11],30.4 µM (inactive)
same,GI50,[12],27.2 µM (inactive)
same,GI50,[13],> 100 µM (inactive)
same,GI50,[14],34.6 µM (inactive)
same,GI50,[15],44.5 µM (inactive)
same,GI50,[16],13.1 µM (inactive)
same,GI50,[17],23.6 µM (inactive)
same,GI50,[18],14.9 µM (inactive)
same,GI50,[19],37.2 µM (inactive)
same,GI50,[20],54.7 µM (inactive)
same,GI50,[21],24.7 µM (inactive)
same,GI50,[22],26.4 µM (inactive)
same,GI50,[23],19 µM (inactive)
same,GI50,[24],17.3 µM (inactive)
same,GI50,[25],49.2 µM (inactive)
same,GI50,[26],19.9 µM (inactive)
same,GI50,[27],21 µM (inactive)
same,GI50,[28],30.8 µM (inactive)
same,GI50,[29],34.7 µM (inactive)
same,GI50,[30],26.4 µM (inactive)
same,GI50,[31],> 100 µM (inactive)
same,GI50,[32],> 100 µM (inactive)
same,GI50,[33],19.2 µM (inactive)
same,GI50,[34],19.6 µM (inactive)
same,GI50,[35],53.2 µM (inactive)
same,GI50,[36],17.6 µM (inactive)
same,GI50,[37],17.4 µM (inactive)
same,GI50,[38],48.5 µM (inactive)
same,GI50,[39],14.5 µM (inactive)
same,GI50,[40],> 100 µM (inactive)
same,GI50,[41],36.1 µM (inactive)
same,GI50,[42],42.7 µM (inactive)
same,GI50,[43],41.7 µM (inactive)
same,GI50,[44],53.3 µM (inactive)
same,GI50,[45],53.8 µM (inactive)
same,GI50,[46],21.3 µM (inactive)
same,GI50,[47],36.1 µM (inactive)
same,GI50,[48],18.6 µM (inactive)
same,GI50,[49],37.4 µM (inactive)
same,GI50,[50],43.8 µM (inactive)
same,GI50,[51],75.2 µM (inactive)
same,GI50,[52],20.8 µM (inactive)
same,GI50,[53],52.1 µM (inactive)
same,GI50,[54],63.2 µM (inactive)
same,GI50,[55],35.8 µM (inactive)
same,GI50,[56],17.2 µM (inactive)
